For assay [1], the target named is Peroxisome proliferator-activated receptor gamma/Nuclear receptor coactivator 2 (Homo sapiens, UniProt P37231). Put plainly: TR-FRET dose response biochemical High Throughput Screening assay for agonists of the steroid receptor coactivator 2 (SRC-2) recruitment by the peroxisome proliferator-activated receptor gamma (PPAR gamma): non-selective agonists. [Related pubchem assays: 1297, 1032 ]. The assay is classed as functional. For orientation: In TR-FRET formats the signal depends on donor and acceptor labels being close together.

Assay [2] concerns the target Peroxisome proliferator-activated receptor gamma/Nuclear receptor coactivator 3 (Homo sapiens, UniProt P37231). Put plainly: TR-FRET dose response biochemical High Throughput Screening assay for agonists of the steroid receptor coactivator 3 (SRC-3) recruitment by the peroxisome proliferator-activated receptor gamma (PPAR gamma): non-selective agonists. [Related pubchem assays: 1301 (Confirmation screen.), 1048 (Primary screen.)]. The assay is classed as functional.

The target of assay [3] is Peroxisome proliferator-activated receptor gamma/Nuclear receptor coactivator 1 (Homo sapiens, UniProt P37231). Put plainly: TR-FRET dose response biochemical High Throughput Screening assay for agonists of the steroid receptor coactivator 1 (SRC-1) recruitment by the peroxisome proliferator-activated receptor gamma (PPAR gamma): non-selective agonists. [Related pubchem assays (depositor defined):AID1300, AID1808, AID504735, AID631]. The class given is protein assay.

The target in assay [4] is T1, Tyrosine-protein phosphatase non-receptor type 7 (Homo sapiens, UniProt P35236).
T1 sequence (P35236 whole entry): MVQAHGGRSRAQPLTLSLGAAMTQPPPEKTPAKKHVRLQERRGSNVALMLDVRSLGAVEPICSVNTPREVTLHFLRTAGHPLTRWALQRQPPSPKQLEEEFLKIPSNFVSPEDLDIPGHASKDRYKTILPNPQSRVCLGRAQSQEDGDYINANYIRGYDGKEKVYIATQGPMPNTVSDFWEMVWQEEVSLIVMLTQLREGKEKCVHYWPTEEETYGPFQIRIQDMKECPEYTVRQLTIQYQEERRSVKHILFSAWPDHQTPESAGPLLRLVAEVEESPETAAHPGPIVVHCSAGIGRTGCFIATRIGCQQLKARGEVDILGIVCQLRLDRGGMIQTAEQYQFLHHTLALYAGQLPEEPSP
The class given is functional.

In assay [5] the target is T2, Tyrosine-protein phosphatase non-receptor type 22 (Homo sapiens, UniProt Q9Y2R2).
T2 sequence (Q9Y2R2 whole entry): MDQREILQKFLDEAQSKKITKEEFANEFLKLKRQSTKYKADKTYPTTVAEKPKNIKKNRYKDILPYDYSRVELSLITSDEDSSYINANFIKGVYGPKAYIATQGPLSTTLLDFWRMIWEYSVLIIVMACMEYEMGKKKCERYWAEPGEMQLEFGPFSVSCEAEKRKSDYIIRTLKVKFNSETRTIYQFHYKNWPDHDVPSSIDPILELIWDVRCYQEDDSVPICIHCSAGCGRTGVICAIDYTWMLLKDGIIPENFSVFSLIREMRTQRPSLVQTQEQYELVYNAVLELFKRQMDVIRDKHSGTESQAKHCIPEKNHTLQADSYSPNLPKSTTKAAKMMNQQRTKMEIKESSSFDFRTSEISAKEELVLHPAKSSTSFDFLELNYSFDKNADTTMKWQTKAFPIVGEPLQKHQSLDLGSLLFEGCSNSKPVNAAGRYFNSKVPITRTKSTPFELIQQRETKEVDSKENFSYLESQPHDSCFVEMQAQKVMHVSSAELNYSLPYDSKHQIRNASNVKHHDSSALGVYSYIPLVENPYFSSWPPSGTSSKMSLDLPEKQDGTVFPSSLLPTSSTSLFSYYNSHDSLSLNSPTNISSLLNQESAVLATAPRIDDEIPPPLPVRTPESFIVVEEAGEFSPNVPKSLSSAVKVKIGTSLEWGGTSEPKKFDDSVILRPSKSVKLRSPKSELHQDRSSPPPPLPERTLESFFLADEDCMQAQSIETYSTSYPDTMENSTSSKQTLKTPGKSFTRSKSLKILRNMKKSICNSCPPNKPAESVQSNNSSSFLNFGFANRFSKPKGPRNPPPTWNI
The assay is classed as functional.

The target of assay [6] is T2, Tyrosine-protein phosphatase non-receptor type 22. The class given is functional. This is another data set of the same source.
A further assay deals with Nonstructural protein 1 (Influenza A virus, UniProt Q194T2). The assay is classed as functional, Influenza A virus (A/California/07/2009(H1N1)).
The target of the next assay is T3, Streptokinase A (Streptococcus pyogenes serotype M1, UniProt P10520).
T3 sequence (P10520 whole entry): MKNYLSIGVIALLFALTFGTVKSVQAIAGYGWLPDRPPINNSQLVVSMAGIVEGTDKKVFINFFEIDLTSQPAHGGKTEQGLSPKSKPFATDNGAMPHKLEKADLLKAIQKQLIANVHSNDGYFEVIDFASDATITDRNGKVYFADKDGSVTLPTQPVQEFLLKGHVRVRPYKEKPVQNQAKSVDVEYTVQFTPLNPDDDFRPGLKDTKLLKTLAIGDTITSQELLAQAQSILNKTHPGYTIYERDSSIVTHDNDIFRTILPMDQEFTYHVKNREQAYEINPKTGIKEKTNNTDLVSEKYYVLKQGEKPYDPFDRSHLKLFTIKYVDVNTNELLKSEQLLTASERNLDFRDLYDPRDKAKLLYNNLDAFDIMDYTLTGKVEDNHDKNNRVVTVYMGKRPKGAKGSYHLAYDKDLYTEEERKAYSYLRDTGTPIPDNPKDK
Put plainly: viability-normalized secreted streptokinase activity reduction – plasminogen activation absorbance, OD405, dose response (AID 1914).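 Further: secreted streptokinase activity via plasminogen activation per viability signal from cell pellet.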 The assay is classed as functional, Streptococcus pyogenes M1 GAS.

Assay [7] deals with Streptococcus sp. 'group A'. Put plainly: Streptococcus pyogenes SK(-)GAS viability under kanamycin – luminescence, BacTiterGlo, confirmation, counter-screen for streptokinase expression inhibitor project, dose response (AID 1900). The class given is functional, organism-based. Background: The purpose of a counterscreen is to sort out artefacts and off-target activity.
The test system of a further assay is Streptococcus. As to the kind of experiment: GAS UMAA2166 growth inhibition – luminescence, BacTiterGlo, counter-screen for streptokinase expression inhibitor project, dose response (AID 1915).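 Further: potency for reduction of bacterial viability or growth.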 The assay is classed as functional, organism-based.
A short description of assay [8]: Counterscreen for AddAB inhibitors: absorbance-based bacterial cell-based high throughput dose response assay for inhibitors of bacterial viability. [Related pubchem assays (depositor defined):AID435030, AID449728, AID449731, AID488942, AID488955, AID488956]. The assay is classed as functional.
A further assay has as its target T4, Exodeoxyribonuclease V (Escherichia coli (strain K12), UniProt P04993+P07648+P08394).
T4 sequence (P04993 whole entry): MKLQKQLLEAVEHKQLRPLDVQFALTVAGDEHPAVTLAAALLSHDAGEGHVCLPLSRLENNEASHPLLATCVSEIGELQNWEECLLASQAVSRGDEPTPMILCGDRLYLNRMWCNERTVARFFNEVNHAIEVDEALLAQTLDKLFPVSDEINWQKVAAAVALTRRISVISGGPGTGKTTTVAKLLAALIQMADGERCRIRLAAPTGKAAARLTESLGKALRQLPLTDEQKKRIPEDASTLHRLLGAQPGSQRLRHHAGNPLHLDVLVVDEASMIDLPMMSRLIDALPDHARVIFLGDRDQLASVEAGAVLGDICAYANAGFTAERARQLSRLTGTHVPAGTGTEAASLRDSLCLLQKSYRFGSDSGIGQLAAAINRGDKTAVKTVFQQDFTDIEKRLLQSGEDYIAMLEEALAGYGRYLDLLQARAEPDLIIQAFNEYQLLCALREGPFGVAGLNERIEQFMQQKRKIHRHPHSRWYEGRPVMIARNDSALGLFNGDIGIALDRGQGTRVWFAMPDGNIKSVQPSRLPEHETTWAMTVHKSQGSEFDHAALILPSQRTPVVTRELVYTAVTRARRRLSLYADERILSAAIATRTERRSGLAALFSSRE
T4 sequence (P07648 whole entry): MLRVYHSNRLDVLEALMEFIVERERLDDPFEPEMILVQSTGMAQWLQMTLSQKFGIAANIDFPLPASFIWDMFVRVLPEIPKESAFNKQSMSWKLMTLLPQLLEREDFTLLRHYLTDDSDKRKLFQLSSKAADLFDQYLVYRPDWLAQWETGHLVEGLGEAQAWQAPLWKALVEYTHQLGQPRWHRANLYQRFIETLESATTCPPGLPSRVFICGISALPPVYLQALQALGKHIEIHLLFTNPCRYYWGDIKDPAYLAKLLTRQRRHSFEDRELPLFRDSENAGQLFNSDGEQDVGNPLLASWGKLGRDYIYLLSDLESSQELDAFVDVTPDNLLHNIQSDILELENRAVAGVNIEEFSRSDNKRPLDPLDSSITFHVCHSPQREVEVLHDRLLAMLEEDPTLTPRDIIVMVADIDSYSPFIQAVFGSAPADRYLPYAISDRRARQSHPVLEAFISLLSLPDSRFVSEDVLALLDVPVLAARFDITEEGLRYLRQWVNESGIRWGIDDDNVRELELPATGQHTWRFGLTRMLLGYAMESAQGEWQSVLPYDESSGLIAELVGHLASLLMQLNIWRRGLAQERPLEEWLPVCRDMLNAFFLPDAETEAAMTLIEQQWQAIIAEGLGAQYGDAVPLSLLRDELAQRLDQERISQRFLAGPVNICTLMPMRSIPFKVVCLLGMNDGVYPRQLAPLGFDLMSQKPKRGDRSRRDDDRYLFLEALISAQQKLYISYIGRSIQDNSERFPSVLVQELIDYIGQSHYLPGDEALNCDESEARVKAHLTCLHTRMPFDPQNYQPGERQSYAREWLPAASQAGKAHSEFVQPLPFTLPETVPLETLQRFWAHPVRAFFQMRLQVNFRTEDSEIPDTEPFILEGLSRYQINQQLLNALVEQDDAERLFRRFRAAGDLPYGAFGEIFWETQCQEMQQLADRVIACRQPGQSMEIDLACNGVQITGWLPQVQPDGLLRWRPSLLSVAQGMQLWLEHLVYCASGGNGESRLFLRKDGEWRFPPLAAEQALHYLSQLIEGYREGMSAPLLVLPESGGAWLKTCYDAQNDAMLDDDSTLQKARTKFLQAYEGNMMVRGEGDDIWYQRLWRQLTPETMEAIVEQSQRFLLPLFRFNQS
T4 sequence (P08394 whole entry): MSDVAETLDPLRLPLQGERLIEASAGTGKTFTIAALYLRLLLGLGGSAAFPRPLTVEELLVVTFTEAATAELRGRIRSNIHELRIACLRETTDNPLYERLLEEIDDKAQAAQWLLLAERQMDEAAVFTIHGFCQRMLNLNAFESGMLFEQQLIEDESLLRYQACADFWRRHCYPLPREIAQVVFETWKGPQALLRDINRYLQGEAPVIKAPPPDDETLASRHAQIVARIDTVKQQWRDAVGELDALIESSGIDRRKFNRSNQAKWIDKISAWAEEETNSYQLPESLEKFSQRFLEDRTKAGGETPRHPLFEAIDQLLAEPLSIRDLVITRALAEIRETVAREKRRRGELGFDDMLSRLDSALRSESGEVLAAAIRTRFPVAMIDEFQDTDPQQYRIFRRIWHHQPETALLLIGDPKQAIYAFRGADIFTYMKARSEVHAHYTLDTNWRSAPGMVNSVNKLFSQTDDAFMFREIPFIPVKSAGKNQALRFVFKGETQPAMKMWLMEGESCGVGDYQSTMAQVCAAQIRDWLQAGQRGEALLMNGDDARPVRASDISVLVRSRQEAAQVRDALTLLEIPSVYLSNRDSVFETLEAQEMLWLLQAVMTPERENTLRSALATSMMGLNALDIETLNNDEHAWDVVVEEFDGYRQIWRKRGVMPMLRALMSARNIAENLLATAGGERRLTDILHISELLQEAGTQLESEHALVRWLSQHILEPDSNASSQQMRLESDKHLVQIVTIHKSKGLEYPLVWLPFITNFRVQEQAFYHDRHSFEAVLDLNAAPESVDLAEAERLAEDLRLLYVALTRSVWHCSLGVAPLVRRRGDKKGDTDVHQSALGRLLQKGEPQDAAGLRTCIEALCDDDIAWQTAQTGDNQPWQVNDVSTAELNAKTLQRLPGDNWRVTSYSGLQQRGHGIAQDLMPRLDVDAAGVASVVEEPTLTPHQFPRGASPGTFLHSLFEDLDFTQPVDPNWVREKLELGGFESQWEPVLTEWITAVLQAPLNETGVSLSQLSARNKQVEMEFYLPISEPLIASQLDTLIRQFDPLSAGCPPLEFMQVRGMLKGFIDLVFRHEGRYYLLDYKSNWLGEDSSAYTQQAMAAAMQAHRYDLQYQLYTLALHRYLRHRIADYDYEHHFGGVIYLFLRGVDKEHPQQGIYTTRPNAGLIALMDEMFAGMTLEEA
Put plainly: RecBCD inhibition via phage-restricted bacterial growth – absorbance, V66 E. coli, mutant T4 phage, counter-screen for AddAB inhibitor project, dose response (AID 492957). The class given is functional, cell-based, Escherichia coli str. K-12 substr. MG1655.

Activity calls are given as the source filed them.

Sequence of Peroxisome proliferator-activated receptor gamma/Nuclear receptor coactivator 2 (P37231 whole entry): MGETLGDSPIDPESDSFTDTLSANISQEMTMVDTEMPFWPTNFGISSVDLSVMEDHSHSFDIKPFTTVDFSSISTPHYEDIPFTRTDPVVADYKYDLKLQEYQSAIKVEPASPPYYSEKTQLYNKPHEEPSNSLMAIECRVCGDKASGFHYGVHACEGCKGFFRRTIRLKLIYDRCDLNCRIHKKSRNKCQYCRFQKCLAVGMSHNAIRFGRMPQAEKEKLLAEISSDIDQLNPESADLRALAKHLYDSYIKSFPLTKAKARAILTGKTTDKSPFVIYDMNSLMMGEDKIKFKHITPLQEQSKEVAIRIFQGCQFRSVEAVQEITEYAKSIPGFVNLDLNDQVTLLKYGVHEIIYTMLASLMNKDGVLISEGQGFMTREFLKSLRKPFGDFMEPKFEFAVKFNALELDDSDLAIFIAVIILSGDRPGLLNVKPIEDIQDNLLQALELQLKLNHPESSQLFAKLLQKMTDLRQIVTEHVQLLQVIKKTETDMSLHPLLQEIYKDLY
Sequence of Peroxisome proliferator-activated receptor gamma/Nuclear receptor coactivator 2 (Q15596 whole entry, further chain): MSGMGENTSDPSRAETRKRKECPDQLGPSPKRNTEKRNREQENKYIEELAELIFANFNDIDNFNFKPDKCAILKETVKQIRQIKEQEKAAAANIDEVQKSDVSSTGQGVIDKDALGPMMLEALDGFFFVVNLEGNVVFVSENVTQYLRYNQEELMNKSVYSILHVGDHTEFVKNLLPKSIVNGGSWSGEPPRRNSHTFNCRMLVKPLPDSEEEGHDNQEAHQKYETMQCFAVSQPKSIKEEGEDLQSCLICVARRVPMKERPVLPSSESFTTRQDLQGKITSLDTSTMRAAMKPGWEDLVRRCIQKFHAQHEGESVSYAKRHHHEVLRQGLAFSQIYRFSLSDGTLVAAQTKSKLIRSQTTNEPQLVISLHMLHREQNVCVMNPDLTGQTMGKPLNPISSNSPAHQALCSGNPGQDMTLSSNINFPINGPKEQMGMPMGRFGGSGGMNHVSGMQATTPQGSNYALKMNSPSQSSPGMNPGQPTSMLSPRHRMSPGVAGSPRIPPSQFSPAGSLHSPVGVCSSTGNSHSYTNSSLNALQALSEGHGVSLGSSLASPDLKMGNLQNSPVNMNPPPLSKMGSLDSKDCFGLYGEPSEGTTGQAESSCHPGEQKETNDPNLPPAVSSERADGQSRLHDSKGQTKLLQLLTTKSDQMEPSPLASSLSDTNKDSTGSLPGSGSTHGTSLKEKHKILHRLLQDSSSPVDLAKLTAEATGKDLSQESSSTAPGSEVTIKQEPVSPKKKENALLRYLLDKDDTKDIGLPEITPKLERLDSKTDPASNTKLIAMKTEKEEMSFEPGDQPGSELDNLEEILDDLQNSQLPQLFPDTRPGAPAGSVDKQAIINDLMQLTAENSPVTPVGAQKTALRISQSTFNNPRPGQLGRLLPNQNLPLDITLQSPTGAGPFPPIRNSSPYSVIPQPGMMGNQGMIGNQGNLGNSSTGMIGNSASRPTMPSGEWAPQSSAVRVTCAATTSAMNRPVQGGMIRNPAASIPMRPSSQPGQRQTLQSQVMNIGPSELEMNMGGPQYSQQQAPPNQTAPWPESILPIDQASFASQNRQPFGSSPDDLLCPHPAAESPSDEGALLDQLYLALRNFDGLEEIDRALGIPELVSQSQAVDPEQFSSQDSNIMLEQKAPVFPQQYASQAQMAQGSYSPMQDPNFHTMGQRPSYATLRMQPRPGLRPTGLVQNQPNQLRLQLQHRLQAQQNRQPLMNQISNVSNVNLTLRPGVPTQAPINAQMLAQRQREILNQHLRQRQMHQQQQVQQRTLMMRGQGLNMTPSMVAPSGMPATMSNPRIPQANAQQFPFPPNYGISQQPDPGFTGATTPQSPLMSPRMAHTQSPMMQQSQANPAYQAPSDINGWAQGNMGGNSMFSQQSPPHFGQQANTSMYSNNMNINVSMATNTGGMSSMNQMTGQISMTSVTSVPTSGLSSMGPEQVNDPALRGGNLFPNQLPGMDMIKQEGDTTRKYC
Sequence of Peroxisome proliferator-activated receptor gamma/Nuclear receptor coactivator 1 (P37231 whole entry): as the sequence (P37231 whole entry) above
Sequence of Peroxisome proliferator-activated receptor gamma/Nuclear receptor coactivator 1 (Q15788 whole entry, further chain): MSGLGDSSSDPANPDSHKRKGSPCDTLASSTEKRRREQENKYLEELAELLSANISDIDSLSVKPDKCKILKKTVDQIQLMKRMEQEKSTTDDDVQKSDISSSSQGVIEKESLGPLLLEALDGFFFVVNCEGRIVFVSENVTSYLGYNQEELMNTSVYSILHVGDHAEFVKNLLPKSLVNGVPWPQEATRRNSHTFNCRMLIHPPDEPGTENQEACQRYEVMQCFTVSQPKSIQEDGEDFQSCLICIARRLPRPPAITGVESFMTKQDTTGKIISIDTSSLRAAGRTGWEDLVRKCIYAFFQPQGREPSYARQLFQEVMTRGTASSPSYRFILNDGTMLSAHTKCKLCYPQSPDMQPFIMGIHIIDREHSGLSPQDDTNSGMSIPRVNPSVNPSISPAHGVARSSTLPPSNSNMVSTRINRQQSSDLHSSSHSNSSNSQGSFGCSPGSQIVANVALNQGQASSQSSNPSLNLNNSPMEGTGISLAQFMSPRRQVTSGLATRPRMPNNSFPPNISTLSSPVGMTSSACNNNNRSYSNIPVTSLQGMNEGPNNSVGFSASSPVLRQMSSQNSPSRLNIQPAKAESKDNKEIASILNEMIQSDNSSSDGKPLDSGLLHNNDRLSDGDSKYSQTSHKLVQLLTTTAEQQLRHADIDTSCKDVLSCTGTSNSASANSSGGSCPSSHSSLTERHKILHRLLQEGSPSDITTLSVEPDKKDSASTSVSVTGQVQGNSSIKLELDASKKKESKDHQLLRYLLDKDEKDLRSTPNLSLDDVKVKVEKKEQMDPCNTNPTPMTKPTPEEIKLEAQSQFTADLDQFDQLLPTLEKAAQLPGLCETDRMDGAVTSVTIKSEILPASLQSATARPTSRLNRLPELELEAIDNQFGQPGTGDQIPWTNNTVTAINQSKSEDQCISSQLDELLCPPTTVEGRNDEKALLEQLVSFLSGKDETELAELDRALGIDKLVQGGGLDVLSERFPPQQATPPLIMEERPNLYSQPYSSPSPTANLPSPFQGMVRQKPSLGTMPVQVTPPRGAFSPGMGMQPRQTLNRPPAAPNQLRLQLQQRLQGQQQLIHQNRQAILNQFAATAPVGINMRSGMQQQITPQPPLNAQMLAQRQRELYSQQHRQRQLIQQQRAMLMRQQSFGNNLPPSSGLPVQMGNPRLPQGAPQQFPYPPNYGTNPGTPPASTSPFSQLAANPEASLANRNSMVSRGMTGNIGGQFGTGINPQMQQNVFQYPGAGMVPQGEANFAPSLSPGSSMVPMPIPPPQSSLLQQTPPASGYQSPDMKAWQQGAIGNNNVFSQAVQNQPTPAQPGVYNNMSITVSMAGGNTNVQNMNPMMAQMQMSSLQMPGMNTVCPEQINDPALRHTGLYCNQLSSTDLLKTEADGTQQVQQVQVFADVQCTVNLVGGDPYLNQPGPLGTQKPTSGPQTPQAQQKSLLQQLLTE
Sequence of Nonstructural protein 1 (Q194T2 whole entry): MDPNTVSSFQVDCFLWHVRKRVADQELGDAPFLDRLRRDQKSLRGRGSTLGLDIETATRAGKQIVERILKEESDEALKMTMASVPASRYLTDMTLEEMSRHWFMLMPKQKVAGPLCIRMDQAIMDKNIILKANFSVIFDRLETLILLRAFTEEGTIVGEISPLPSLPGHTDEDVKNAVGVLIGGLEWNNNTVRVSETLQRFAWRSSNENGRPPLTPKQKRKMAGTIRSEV

What is called EC50 is the concentration that produces a half-maximal response. On to `O=C(CSc1ncnc2c1oc1ccccc12)Nc1nc2ccccc2s1`, for which the EC50 in assay [1] is > 79.4 µM (not active); in assay [2], > 79.4 µM (not active); in assay [3], > 79.4 µM (inactive).
The IC50 is the concentration that gives 50% inhibition. Regarding `CCOC(=O)C(NC(=O)CCl)(Nc1ccc(C(O)(C(=O)OCC)C(F)(F)F)cc1)C(F)(F)F` (centres undefined), the IC50 in assay [4], in [5] and in [6] was > 79.4 µM (inactive) throughout.
As to `CC12CCC(C(=O)N(CSC(=S)N/N=C\c3ccccc3O)C1=O)C2(C)C` (centres undefined), the EC50 in assay [1] was 7.31 µM (active); in assay [2], 34.9 µM (not active); on Streptokinase A, > 150 µM (not active); in [7], 2.43 µM (active); in [3], 7.15 µM (active); with Streptococcus, 5.29 µM (active). The IC50 on Nonstructural protein 1 is 2.09 µM (active).
Take `O=C(NNC(=O)c1cccc(Br)c1)C(=O)N1CCCCC1`: the IC50 in [4], in [5] and in assay [6] was > 79.4 µM (inactive) each time.
Regarding `CCCCC(C(=O)OCC)C(N)Cc1ccc(F)cc1` (centres undefined), the IC50 in assay [4], in [5] and in assay [6] was > 79.4 µM (inactive) each time.
As to `COc1ccc2nc(SCc3cccnc3)c(C#N)cc2c1`, the EC50 was 9.26 µM (active) in assay [1], 22.1 µM (not active) in assay [2] and 9.56 µM (active) in [3].
As to `O=C(Nc1ccc2[nH]c(O)nc2c1)c1ccc([N+](=O)[O-])o1`, the IC50 in assay [8] is 29 µM (inactive); on Exodeoxyribonuclease V, > 119 µM (inactive).
